#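 Cultured in 96-well plates, cells were exposed to test compound for 48 hours across five concentrations. GI50 marks 50% less growth.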 The source made the active and inactive calls. Rule as the data show it: active = GI50 up to about 1.1 µM and inactive = higher.
# Experiments:
# Assay in all cases: NCI tumour cell line growth inhibition, 48 h
# [1] = test system: SN12C
# [2] = test system: RXF 393
# [3] = test system: SF-295
# [4] = test system: SK-OV-3
# [5] = test system: SK-MEL-5
# [6] = test system: SF-539
# [7] = test system: KM12
# [8] = test system: CCRF-CEM
# [9] = test system: OVCAR-3
# [10] = test system: HCT-15
# [11] = test system: OVCAR-4
# [12] = test system: NCI/ADR-RES
# [13] = test system: HCC 2998
# [14] = test system: NCI-H522
# [15] = test system: MDA-MB-435
# [16] = test system: OVCAR-5
# [17] = test system: SNB-75
# [18] = test system: HL-60
# [19] = test system: UACC-257
# [20] = test system: NCI-H226
compound,measurement,setting,value
COc1c2c(cc3c1C1(O)Cc4ccc5c(c4C[N+]1(C)CC3)OCO5)OCO2 (stereo not given),GI50,[1],> 100 µM (inactive)
same,GI50,[2],43.9 µM (inactive)
same,GI50,[3],> 100 µM (inactive)
same,GI50,[4],> 100 µM (inactive)
same,GI50,[5],> 100 µM (inactive)
same,GI50,[6],> 100 µM (inactive)
same,GI50,[7],> 100 µM (inactive)
same,GI50,[8],82.8 µM (inactive)
same,GI50,[9],> 100 µM (inactive)
same,GI50,[10],> 100 µM
same,GI50,[11],> 100 µM (inactive)
same,GI50,[12],> 100 µM (inactive)
same,GI50,[13],33 µM (inactive)
same,GI50,[14],72.9 µM (inactive)
same,GI50,[15],> 100 µM (inactive)
same,GI50,[16],> 100 µM (inactive)
same,GI50,[17],> 100 µM (inactive)
same,GI50,[18],42.7 µM (inactive)
same,GI50,[19],> 100 µM (inactive)
same,GI50,[20],> 100 µM (inactive)

# — ChEMBL document CHEMBL1201862, “PubChem BioAssay data set” (2004)
